Assay results: patent US7741327B2 (Hoffmann-La Roche Inc., priority 2008, dated 2010)

Target: T1, Recombinant human liver GK1 (GST-GK) (Homo sapiens, UniProt P35557)
T1 construct: made in house; host or cells: E. coli
T1 sequence (P35557 1-466 isoform P35557-2): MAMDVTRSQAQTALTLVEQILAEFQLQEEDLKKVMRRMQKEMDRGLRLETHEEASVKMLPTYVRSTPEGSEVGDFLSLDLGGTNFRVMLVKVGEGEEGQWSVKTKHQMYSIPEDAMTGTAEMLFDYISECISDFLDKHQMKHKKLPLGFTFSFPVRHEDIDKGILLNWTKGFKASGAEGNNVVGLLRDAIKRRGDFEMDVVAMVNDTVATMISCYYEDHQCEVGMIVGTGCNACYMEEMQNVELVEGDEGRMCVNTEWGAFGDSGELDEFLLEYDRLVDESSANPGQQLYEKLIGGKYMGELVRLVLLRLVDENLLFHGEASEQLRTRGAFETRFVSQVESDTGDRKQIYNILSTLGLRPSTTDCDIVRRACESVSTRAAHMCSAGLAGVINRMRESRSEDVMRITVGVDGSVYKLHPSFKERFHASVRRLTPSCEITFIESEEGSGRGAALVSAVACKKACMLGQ
Assay: In vitro glucokinase activity (G6PDH-coupled NADH assay)
Type: biochemical
Conditions: for SC1.5 (concentration of activator that produced a 50% increase in the activity of GK): 30° C., 5 mM D-glucose, 10% DMSO
In short: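 GST-tagged human liver GK1 from E. coli, assayed at 30° C in 25 mM Hepes pH 7.1 with 5 mM D-glucose, 1 mM ATP, 1.8 mM NAD and G6PDH coupling, 10% DMSO final; reaction started with enzyme after 10 min preincubation. NADH formation followed at OD340; SC1.5 is activator concentration giving 50% increase over DMSO control rate.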

| SC1.5 (concentration of activator that produced a 50% increase in the activity of GK) [µM] | fold act. @ 30 μM (at 30 μM test compound) [fold] | SMILES |
| --- | --- | --- |
| 1.872 | – | CC(C)OC1=CC(=O)N([C@@H](CC2CCCCC2)C(=O)Nc2ccn(CC(C)(C)O)n2)C1 [Example 25, (S)-3-Cyclohexyl-N-[1-(2-hydroxy-2-methyl-propyl)-1H-pyrazol-3-yl]-2-(4-isopropoxy-2-oxo-2,5-dihydro-pyrrol-1-yl)-propionamide] |
| 0.206 | – | CC(C)C[C@@H](C(=O)Nc1ccn(CC(C)(C)O)n1)N1CC(Oc2ccccc2F)=CC1=O [Example 167, (S)-2-[4-(2-Fluoro-phenoxy)-2-oxo-2,5-dihydro-pyrrol-1-yl]-4-methyl-pentanoic acid [1-(2-hydroxy-2-methyl-propyl)-1H-pyrazol-3-yl]-amide] |
| 0.303 | – | CSCC[C@@H](C(=O)Nc1ccn(C[C@@H](O)CO)n1)N1CC(Oc2ccccc2Cl)=CC1=O [Example 223, (S)-2-[4-(2-Chloro-phenoxy)-2-oxo-2,5-dihydro-pyrrol-1-yl]-N-[1-((R)-2,3-dihydroxy-propyl)-1H-pyrazol-3-yl]-4-methylsulfanyl-butyramide] |
| 3.99 | – | COC1=CC(=O)N([C@@H](CC2CCCC2)C(=O)Nc2ccc(C(=O)O)cn2)C1 [Example 11, 6-[(S)-3-Cyclopentyl-2-(4-methoxy-2-oxo-2,5-dihydro-pyrrol-1-yl)-propionylamino]-nicotinic acid] |
| 0.239 | – | CC(C)C[C@@H](C(=O)Nc1ccn(C[C@@H](O)CO)n1)N1CC(Oc2ccccc2F)=CC1=O [Example 166, (S)-2-[4-(2-Fluoro-phenoxy)-2-oxo-2,5-dihydro-pyrrol-1-yl]-4-methyl-pentanoic acid [1-((R)-2,3-dihydroxy-propyl)-1H-pyrazol-3-yl]-amide] |
| 0.21 | – | CC(C)C[C@@H](C(=O)Nc1ccn(C[C@@H]2COC(C)(C)O2)n1)N1CC(Oc2cccc(C3CC3)c2F)=CC1=O [Example 146, (S)-2-[4-(3-Cyclopropyl-2-fluoro-phenoxy)-2-oxo-2,5-dihydro-pyrrol-1-yl]-4-methyl-pentanoic acid [1-((R)-2,2-dimethyl-[1,3]dioxolan-4-yl-methyl)-1H-pyrazol-3-yl]-amide] |
| 2.26 | – | COCc1nsc(NC(=O)[C@H](CC(C)C)N2CC(Oc3ccccc3Cl)=CC2=O)n1 [Example 112, (S)-2-[4-(2-Chloro-phenoxy)-2-oxo-2,5-dihydro-pyrrol-1-yl]-4-methyl-pentanoic acid (3-methoxymethyl-[1,2,4]thiadiazol-5-yl)-amide] |
| 0.058 | – | Cl.O=C(Nc1cnccn1)[C@H](CC1CCCCC1)N1CC(Oc2c(F)cccc2Cl)=CC1=O [Example 71, (S)-2-[4-(2-Chloro-6-fluoro-phenoxy)-2-oxo-2,5-dihydro-pyrrol-1-yl]-3-cyclohexyl-N-pyrazin-2-yl-propionamide Hydrochloride] |
| 0.33 | – | CC(C)(O)Cn1ccc(NC(=O)[C@H](C[C@@H]2CCCCO2)N2CC(Oc3c(F)cccc3F)=CC2=O)n1 [Example 262, (S)-2-[4-(2,6-Difluoro-phenoxy)-2-oxo-2,5-dihydro-pyrrol-1-yl]-N-[1-(2-hydroxy-2-methyl-propyl)-1H-pyrazol-3-yl]-3-tetrahydro-pyran-2-yl-propionamide] |
| 0.02 | – | CCOc1cccc(OC2=CC(=O)N([C@@H](CC(C)C)C(=O)Nc3ccn(CC(C)(C)O)n3)C2)c1F [Example 114, (S)-2-[4-(3-Ethoxy-2-fluoro-phenoxy)-2-oxo-2,5-dihydro-pyrrol-1-yl]-4-methyl-pentanoic acid [1-(2-hydroxy-2-methyl-propyl)-1H-pyrazol-3-yl]-amide] |
| 8.055 | – | CCOc1ccccc1OC1=CC(=O)N([C@@H](CC(C)C)C(=O)Nc2ccn(C[C@@H]3COC(C)(C)O3)n2)C1 [Example 83, (S)-2-[4-(2-Ethoxy-phenoxy)-2-oxo-2,5-dihydro-pyrrol-1-yl]-4-methyl-pentanoic acid [1-((R)-2,2-dimethyl-[1,3]dioxolan-4-yl-methyl)-1H-pyrazol-3-yl]-amide] |
| 0.033 | – | COc1ccccc1OC1=CC(=O)N([C@@H](CC2CCCCC2)C(=O)Nc2ccn(C)n2)C1 [Example 29, (S)-3-Cyclohexyl-N-(1-methyl-1H-pyrazol-3-yl)-2-[4-(2-methoxy-phenoxy)-2-oxo-2,5-dihydro-pyrrol-1-yl]-propionamide] |
| 1.312 | – | CCOc1ccccc1OC1=CC(=O)N([C@@H](CC(C)C)C(=O)Nc2ccn(C[C@@H](O)CO)n2)C1.Cl [Example 84, (S)-2-[4-(2-Ethoxy-phenoxy)-2-oxo-2,5-dihydro-pyrrol-1-yl]-4-methyl-pentanoic acid [1-((R)-2,3-dihydroxy-propyl)-1H-pyrazol-3-yl]-amide Hydrochloride] |
| 3.478 | – | CCc1nsc(NC(=O)[C@H](CC(C)C)N2CC(Oc3ccccc3Cl)=CC2=O)n1 [Example 110, (S)-2-[4-(2-Chloro-phenoxy)-2-oxo-2,5-dihydro-pyrrol-1-yl]-4-methyl-pentanoic acid (3-ethyl-[1,2,4]thiadiazol-5-yl)-amide] |
| 1.294 | – | Cc1ccccc1OC1=CC(=O)N([C@@H](CC(C)C)C(=O)Nc2ccn(C[C@@H]3COC(C)(C)O3)n2)C1 [Example 123, (S)-4-Methyl-2-(2-oxo-4-o-tolyloxy-2,5-dihydro-pyrrol-1-yl)-pentanoic acid [1-((R)-2,2-dimethyl-[1,3]dioxolan-4-yl-methyl)-1H-pyrazol-3-yl]-amide] |
| 0.252 | – | Cc1ccccc1OC1=CC(=O)N([C@@H](CC(C)C)C(=O)Nc2ccn(CC(C)(C)O)n2)C1 [Example 125, (S)-4-Methyl-2-(2-oxo-4-o-tolyloxy-2,5-dihydro-pyrrol-1-yl)-pentanoic acid [1-(2-hydroxy-2-methyl-propyl)-1H-pyrazol-3-yl]-amide] |
| 0.125 | – | CC[C@H](C)CC(C(=O)Nc1ccn(C[C@@H](O)CO)n1)N1CC(Oc2ccccc2Cl)=CC1=O (mixture of isomers) [Example 249, (S)-2-[4-(2-Chloro-phenoxy)-2-oxo-2,5-dihydro-pyrrol-1-yl]-4-methyl-hexanoic acid [1-((R)-2,3-dihydroxy-propyl)-1H-pyrazol-3-yl]-amide] |
| 1.03 | – | COCCc1nsc(NC(=O)[C@H](CC(C)C)N2CC(Oc3ccccc3Cl)=CC2=O)n1 [Example 104, (S)-2-[4-(2-Chloro-phenoxy)-2-oxo-2,5-dihydro-pyrrol-1-yl]-4-methyl-pentanoic acid [3-(2-methoxy-ethyl)-[1,2,4]thiadiazol-5-yl]-amide] |
| 0.138 | – | CC(C)C[C@@H](C(=O)Nc1ccn(C[C@H](O)CO)n1)N1CC(Oc2ccccc2Cl)=CC1=O [Example 175, (S)-2-[4-(2-Chloro-phenoxy)-2-oxo-2,5-dihydro-pyrrol-1-yl]-4-methyl-pentanoic acid [1-((S)-2,3-dihyrxy-propyl)-1H-pyrazol-3-yl]-amide] |
| > 30 | 1.4 | CC(C)C[C@@H](C(=O)Nc1nc(C2CC2)ns1)N1CC(Oc2ccccc2Cl)=CC1=O [Example 105, (S)-2-[4-(2-Chloro-phenoxy)-2-oxo-2,5-dihydro-pyrrol-1-yl]-4-methyl-pentanoic acid (3-cyclopropyl-[1,2,4]thiadiazol-5-yl)-amide] |
